Data as given in PMC11576293, “New series of 4,6-diaryl pyrimidines: facile synthesis and antiproliferative activity as dual EGFR/VEGFR-2 inhibitors” (Frontiers in Chemistry, 2024).

Key:
Test in all cases: NCI-60 single-dose screen
Format in all cases: cell-based
A498 = conditions: Homo sapiens, single dose 10 µM, '-' = no inhibition, read-out: % Growth Inhibition
Method in brief: (§1)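 Was run as a one-dose (10 μM) screen by the NCI Developmental Therapeutics Program, covering 60 tumour cell lines from nine cancer types including renal, melanoma and CNS.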

HOP-62 = conditions: Homo sapiens, single dose 10 µM, '-' = no inhibition, read-out: % Growth Inhibition
Method in brief: as §1

SNB-75 = conditions: Homo sapiens, single dose 10 µM, '-' = no inhibition, read-out: % Growth Inhibition
Method in brief: as §1

HCC-2998 = conditions: Homo sapiens, single dose 10 µM, '-' = no inhibition, read-out: % Growth Inhibition
Method in brief: as §1

RPMI-8226 = conditions: Homo sapiens, single dose 10 µM, '-' = no inhibition, read-out: % Growth Inhibition
Method in brief: as §1

RXF 393 = conditions: Homo sapiens, single dose 10 µM, '-' = no inhibition, read-out: % Growth Inhibition
Method in brief: as §1

CAKI-1 = conditions: Homo sapiens, single dose 10 µM, '-' = no inhibition, read-out: % Growth Inhibition
Method in brief: as §1

SF-539 = conditions: Homo sapiens, single dose 10 µM, '-' = no inhibition, read-out: % Growth Inhibition
Method in brief: as §1

IGROV1 = conditions: Homo sapiens, IGROV-1, single dose 10 µM, '-' = no inhibition, read-out: % Growth Inhibition
Method in brief: as §1

MCF7 = conditions: Homo sapiens, single dose 10 µM, '-' = no inhibition, read-out: % Growth Inhibition
Method in brief: as §1

SK-MEL-28 = conditions: Homo sapiens, single dose 10 µM, '-' = no inhibition, read-out: % Growth Inhibition
Method in brief: as §1

A549/ATCC = conditions: Homo sapiens, single dose 10 µM, '-' = no inhibition, read-out: % Growth Inhibition
Method in brief: as §1

786-0 = conditions: Homo sapiens, single dose 10 µM, '-' = no inhibition, read-out: % Growth Inhibition
Method in brief: as §1

MALME-3M = conditions: Homo sapiens, single dose 10 µM, '-' = no inhibition, read-out: % Growth Inhibition
Method in brief: as §1

DU-145 = conditions: Homo sapiens, single dose 10 µM, '-' = no inhibition, read-out: % Growth Inhibition
Method in brief: as §1

HCT-15 = conditions: Homo sapiens, single dose 10 µM, '-' = no inhibition, read-out: % Growth Inhibition
Method in brief: as §1

HOP-92 = conditions: Homo sapiens, single dose 10 µM, '-' = no inhibition, read-out: % Growth Inhibition
Method in brief: as §1

SF-295 = conditions: Homo sapiens, single dose 10 µM, '-' = no inhibition, read-out: % Growth Inhibition
Method in brief: as §1

M14 = conditions: Homo sapiens, single dose 10 µM, '-' = no inhibition, read-out: % Growth Inhibition
Method in brief: as §1

NCI-H23 = conditions: Homo sapiens, single dose 10 µM, '-' = no inhibition, read-out: % Growth Inhibition
Method in brief: as §1

NCI-H322M = conditions: Homo sapiens, single dose 10 µM, '-' = no inhibition, read-out: % Growth Inhibition
Method in brief: as §1

U251 = conditions: Homo sapiens, U-251, single dose 10 µM, '-' = no inhibition, read-out: % Growth Inhibition
Method in brief: as §1

NCI-H460 = conditions: Homo sapiens, single dose 10 µM, '-' = no inhibition, read-out: % Growth Inhibition
Method in brief: as §1

MDA-MB-468 = conditions: Homo sapiens, single dose 10 µM, '-' = no inhibition, read-out: % Growth Inhibition
Method in brief: as §1

EKVX = conditions: Homo sapiens, single dose 10 µM, '-' = no inhibition, read-out: % Growth Inhibition
Method in brief: as §1

SNB-19 = conditions: Homo sapiens, single dose 10 µM, '-' = no inhibition, read-out: % Growth Inhibition
Method in brief: as §1

ACHN 1 = conditions: Homo sapiens, single dose 10 µM, '-' = no inhibition, read-out: % Growth Inhibition
Method in brief: as §1

HS 578T = conditions: Homo sapiens, single dose 10 µM, '-' = no inhibition, read-out: % Growth Inhibition
Method in brief: as §1

CCRF-CEM = conditions: Homo sapiens, single dose 10 µM, '-' = no inhibition, read-out: % Growth Inhibition
Method in brief: as §1

OVCAR-5 = conditions: Homo sapiens, single dose 10 µM, '-' = no inhibition, read-out: % Growth Inhibition
Method in brief: as §1

LOX IMVI = conditions: Homo sapiens, single dose 10 µM, '-' = no inhibition, read-out: % Growth Inhibition
Method in brief: as §1

NCI-H522 = conditions: Homo sapiens, single dose 10 µM, '-' = no inhibition, read-out: % Growth Inhibition
Method in brief: as §1

SR = conditions: Homo sapiens, single dose 10 µM, '-' = no inhibition, read-out: % Growth Inhibition
Method in brief: as §1

PC-3 = conditions: Homo sapiens, single dose 10 µM, '-' = no inhibition, read-out: % Growth Inhibition
Method in brief: as §1

SF-268 = conditions: Homo sapiens, single dose 10 µM, '-' = no inhibition, read-out: % Growth Inhibition
Method in brief: as §1

SK-MEL-5 = conditions: Homo sapiens, single dose 10 µM, '-' = no inhibition, read-out: % Growth Inhibition
Method in brief: as §1

SW-620 = conditions: Homo sapiens, single dose 10 µM, '-' = no inhibition, read-out: % Growth Inhibition
Method in brief: as §1

SK-OV-3 = conditions: Homo sapiens, single dose 10 µM, '-' = no inhibition, read-out: % Growth Inhibition
Method in brief: as §1

OVCAR-4 = conditions: Homo sapiens, single dose 10 µM, '-' = no inhibition, read-out: % Growth Inhibition
Method in brief: as §1

NCI/ADR-RES = conditions: Homo sapiens, single dose 10 µM, '-' = no inhibition, read-out: % Growth Inhibition
Method in brief: as §1

UACC-62 = conditions: Homo sapiens, single dose 10 µM, '-' = no inhibition, read-out: % Growth Inhibition
Method in brief: as §1

COLO 205 = conditions: Homo sapiens, single dose 10 µM, '-' = no inhibition, read-out: % Growth Inhibition
Method in brief: as §1

HCT-116 = conditions: Homo sapiens, single dose 10 µM, '-' = no inhibition, read-out: % Growth Inhibition
Method in brief: as §1

KM12 = conditions: Homo sapiens, single dose 10 µM, '-' = no inhibition, read-out: % Growth Inhibition
Method in brief: as §1

T-47D = conditions: Homo sapiens, T47D, single dose 10 µM, '-' = no inhibition, read-out: % Growth Inhibition
Method in brief: as §1

SK-MEL-2 = conditions: Homo sapiens, single dose 10 µM, '-' = no inhibition, read-out: % Growth Inhibition
Method in brief: as §1

OVCAR-3 = conditions: Homo sapiens, single dose 10 µM, '-' = no inhibition, read-out: % Growth Inhibition
Method in brief: as §1

UO-31 = conditions: Homo sapiens, single dose 10 µM, '-' = no inhibition, read-out: % Growth Inhibition
Method in brief: as §1

COc1ccc(-c2cc(-c3ccc(Cl)cc3)nc(SCc3ccccc3)n2)cc1 [Compound 14, 2-(Benzylthio)-4-(4-chlorophenyl)-6-(4-methoxyphenyl)pyrimidine]
inhibition at 10 µM (A498): < 0%
inhibition at 10 µM (HOP-62): < 0%
inhibition at 10 µM (SNB-75): < 0%
inhibition at 10 µM (HCC-2998): < 0%
inhibition at 10 µM (RPMI-8226): < 0%
inhibition at 10 µM (RXF 393): < 0%
inhibition at 10 µM (CAKI-1): 2.18%
inhibition at 10 µM (SF-539): < 0%
inhibition at 10 µM (IGROV1): < 0%
inhibition at 10 µM (MCF7): < 0%
inhibition at 10 µM (SK-MEL-28): < 0%
inhibition at 10 µM (A549/ATCC): 2.08%
inhibition at 10 µM (786-0): < 0%
inhibition at 10 µM (MALME-3M): < 0%
inhibition at 10 µM (DU-145): 1.74%
inhibition at 10 µM (HCT-15): 4.95%
inhibition at 10 µM (HOP-92): < 0%
inhibition at 10 µM (SF-295): < 0%
inhibition at 10 µM (M14): < 0%
inhibition at 10 µM (NCI-H23): < 0%
inhibition at 10 µM (NCI-H322M): < 0%
inhibition at 10 µM (U251): < 0%
inhibition at 10 µM (NCI-H460): < 0%
inhibition at 10 µM (MDA-MB-468): < 0%
inhibition at 10 µM (EKVX): 2.76%
inhibition at 10 µM (SNB-19): < 0%
inhibition at 10 µM (ACHN 1): 11%
inhibition at 10 µM (HS 578T): < 0%
inhibition at 10 µM (CCRF-CEM): < 0%
inhibition at 10 µM (OVCAR-5): 2.5%
inhibition at 10 µM (LOX IMVI): 3.14%
inhibition at 10 µM (NCI-H522): < 0%
inhibition at 10 µM (SR): 10.2%
inhibition at 10 µM (PC-3): 20.7%
inhibition at 10 µM (SF-268): < 0%
inhibition at 10 µM (SK-MEL-5): 2.06%
inhibition at 10 µM (SW-620): < 0%
inhibition at 10 µM (SK-OV-3): < 0%
inhibition at 10 µM (OVCAR-4): < 0%
inhibition at 10 µM (NCI/ADR-RES): < 0%
inhibition at 10 µM (UACC-62): < 0%
inhibition at 10 µM (COLO 205): 10.3%
inhibition at 10 µM (HCT-116): < 0%
inhibition at 10 µM (KM12): < 0%
inhibition at 10 µM (T-47D): 14.4%
inhibition at 10 µM (SK-MEL-2): 7.79%
inhibition at 10 µM (OVCAR-3): 6.22%
inhibition at 10 µM (UO-31): < 0%

COc1ccc(CSc2nc(-c3ccc(Cl)cc3)cc(-c3ccc(OC)cc3)n2)cc1 [Compound 15, 2-(4-Methoxybenzylthio)-4-(4-chlorophenyl)-6-(4-methoxyphenyl)pyrimidine]
inhibition at 10 µM (A498): < 0%
inhibition at 10 µM (HOP-62): < 0%
inhibition at 10 µM (SNB-75): < 0%
inhibition at 10 µM (HCC-2998): < 0%
inhibition at 10 µM (RPMI-8226): < 0%
inhibition at 10 µM (RXF 393): < 0%
inhibition at 10 µM (CAKI-1): < 0%
inhibition at 10 µM (SF-539): < 0%
inhibition at 10 µM (IGROV1): < 0%
inhibition at 10 µM (MCF7): < 0%
inhibition at 10 µM (SK-MEL-28): < 0%
inhibition at 10 µM (A549/ATCC): < 0%
inhibition at 10 µM (786-0): < 0%
inhibition at 10 µM (MALME-3M): < 0%
inhibition at 10 µM (DU-145): 0.47%
inhibition at 10 µM (HCT-15): 0.53%
inhibition at 10 µM (HOP-92): < 0%
inhibition at 10 µM (SF-295): < 0%
inhibition at 10 µM (M14): < 0%
inhibition at 10 µM (NCI-H23): 4.6%
inhibition at 10 µM (NCI-H322M): < 0%
inhibition at 10 µM (U251): < 0%
inhibition at 10 µM (NCI-H460): < 0%
inhibition at 10 µM (MDA-MB-468): < 0%
inhibition at 10 µM (EKVX): < 0%
inhibition at 10 µM (SNB-19): < 0%
inhibition at 10 µM (ACHN 1): 15.8%
inhibition at 10 µM (HS 578T): 9.27%
inhibition at 10 µM (CCRF-CEM): < 0%
inhibition at 10 µM (OVCAR-5): < 0%
inhibition at 10 µM (LOX IMVI): < 0%
inhibition at 10 µM (NCI-H522): < 0%
inhibition at 10 µM (SR): 8.9%
inhibition at 10 µM (PC-3): 17.5%
inhibition at 10 µM (SF-268): < 0%
inhibition at 10 µM (SK-MEL-5): < 0%
inhibition at 10 µM (SW-620): < 0%
inhibition at 10 µM (SK-OV-3): < 0%
inhibition at 10 µM (OVCAR-4): < 0%
inhibition at 10 µM (NCI/ADR-RES): < 0%
inhibition at 10 µM (UACC-62): < 0%
inhibition at 10 µM (COLO 205): 2.89%
inhibition at 10 µM (HCT-116): < 0%
inhibition at 10 µM (KM12): < 0%
inhibition at 10 µM (T-47D): < 0%
inhibition at 10 µM (SK-MEL-2): < 0%
inhibition at 10 µM (OVCAR-3): 5.05%
inhibition at 10 µM (UO-31): < 0%
